Measured values reported in patent publication US8673914B2, “Use of phosphodiesterase inhibitors for treating multidrug resistance” (St. John's University, priority 2011, dated 2014).

Assays:
[1] = tested on: MRP7 localization in HEK/MRP7 cells; test: Immunofluorescence of MRP7; format: cell-based; details: 5 μM; 72 h
Procedure: HEK/MRP7 cells (1×10^4) were seeded in 24 well plates and cultured overnight. […] Cells were washed with PBS and fixed with 4% paraformaldehyde for 15 min at room temperature and then rinsed with PBS three times. Nonspecific reaction was blocked with 1% BSA for 1 h at room temperature. A polyclonal antibody D19 against MRP7 (1:200) was added and incubated overnight. […] DAPI was used for nuclear staining. Immunofluorescent images were taken with an inverted microscope (model IX70; Olympus, Center Valley, Pa.) with IX-FLA fluorescence and CCD camera.

[2] = tested on: ABCB1 expression in KB-C2 cells; test: Western blot and immunofluorescence of ABCB1; format: cell-based, human; details: for protein level of ABCB1 (Western blot): 10 μM, 36 and 72 h; for expression of ABCB1 in the membrane (immunofluorescence): 72 h
Procedure: Following incubation, the cells were harvested and rinsed twice with ice-cold PBS, and total cell lysates were collected with cell lysis buffer (1×PBS, 1% Nonidet P-40, 0.5% sodium deoxycholate, 0.1% SDS, 100 μg/ml phenylmethylsulfonyl fluoride, 10 μg/ml aprotinin, 10 μg/ml leupeptin) for 30 min with gentle rocking, and clarified by centrifugation at 12,000 rpm for 10 min at 4° C. Equal amounts (100 μg of protein) of cell lysates were resolved by sodium dodecyl sulfate polyacrylamide gel electrophoresis (SDS-PAGE) and electrophoretically transferred onto polyvinylidene fluoride (PVDF) membranes. After incubation in a blocking solution containing 5% nonfat milk in TBST buffer (10 mM Tris-HCL (pH 8.0), 150 mM NaCl, and 0.1% Tween 20) for 1 h at room temperature, membranes were immunoblotted overnight with primary monoclonal antibodies C219 (1:200) against ABCB1, or 14C10 (1:200) against GAPDH, at 4° C. Subsequently, the membranes were washed three times for 15 min with TBST buffer and incubated at room temperature for 2 h with HRP-conjugated secondary antibody at 1:1000 dilutions. The membranes underwent three additional washes for 15 min with TBST buffer and the protein-antibody complexes were visualized by the enhanced PHOTOTOPE® HRP Detection Kit (Cell Signaling Technology, Inc.) and exposed to Kodak medical X-ray processor (Eastman Kodak Co., Rochester, N.Y.). […] Propidium iodide was used for nuclear staining.

ABCB1 [3] = target: T1, ABCB1 (Homo sapiens, UniProt P08183); test: Photoaffinity labeling with [^125I]-IAAP (Example 1); format: binding; details: for IC50: ABCB1 membrane vesicles
T1 construct: made in house; host or cells: High Five insect cells (membrane vesicles / crude membranes)
Procedure: The photoaffinity labeling of ABCB1 with [^125I]-IAAP was performed as described in Sauna et al. (2000) Proc. Natl. Acad. Sci. USA 97:2515-20. The membrane vesicles from High Five™ insect cells expressing ABCB1 (50 μg of protein) were incubated at room temperature with different concentrations of drugs in the ATPase assay buffer with [^125I]-IAAP (7 nM) for 5 min under subdued light. […] Subsequently, the samples were run in a 7% Tris-acetate NuPAGE gel on SDS-PAGE; and the gels were dried and exposed to Bio-Max MR film (Eastman Kodak Co., Rochester, N.Y.) at −70° C. for 8-12 h. The radioactivity incorporated into the ABCB1 band was quantified using the STORM 860 PhosphorImager system and ImageQuaNT (Molecular Dynamics, CA).

ABCG2-482-R2 (ABCG2) = test: MTT cytotoxicity/reversal assay (Example 1); details: +10 μM reversal agent
Procedure: The KB-C2 and KB-3-1 were kindly provided by Dr. Akiyama (Kagoshima University, Japan). HEK293-pcDNA3.1 and wild-type HEK/ABCG2 transfected cells were established by selection with G418 after transfecting HEK293 with either (1) empty pcDNA3.1 vector or (2) pcDNA3.1 vector containing full length of ABCG2 coding arginine (R) at amino acid position 482, and were then cultured in a medium with 2 mg/ml of G418 (ABCG2-482-R2 cells). Similarly, the HEK/MRP1 (ABCC1) and HEK/ABCB1 cells were generated by transfecting the HEK293 cells with either the MRP1 expression vector or the ABCB1 expression vector. All of the cell lines were grown in Dulbecco's modified Eagle's medium (DMEM) supplemented with 10% bovine serum, 100 units/ml penicillin, and […] streptomycin in a humidified incubator containing 5% CO2 at 37° C.
The MTT assay was used to assess cytotoxicity. The cultured cells were harvested with trypsin and resuspended in a final concentration of 4×10^3 cells/well for KB-3-1; 7.5×10^3 cells/well for KB-C2; and 8×10^3 for all of the other cell lines used in this study. Cells were seeded evenly in 96-well multiplates. […] After 68 h of incubation, 20 μl of the MTT solution (4 mg/ml) was added to each well, and the plate was further incubated for 4 h at 37° C., allowing viable cells to convert the yellow-colored MTT into dark-blue formazan crystals. Subsequently, the medium was discarded, and 100 μl of DMSO was added into each well to dissolve the formazan crystals, generating purple color. The absorbance was determined at 570 nm by an OPSYS Microplate Reader from DYNEX Technologies, Inc. (Chantilly, Va.). […] The degree of the reversal of multidrug resistance (MDR) was calculated by dividing the IC50 of an anticancer drug, e.g., an antineoplastic or chemotherapeutic drug (agent, compound), in a cell type in the absence of a reversal agent by the IC50 of the anticancer drug in the same cell type in the presence of the reversal agent. The IC50 values were calculated from survival curves using the Bliss method.

ABCB1 [4] = target: T1, ABCB1; test: Vi-sensitive ATPase assay of ABCB1 (Example 1); format: biochemical; details: ABCB1 membrane vesicles; read-out: concentration required for 50% stimulation of ATPase activity
Procedure: The Vi-sensitive ATPase activity of ABCB1 in membrane vesicles of High Five™ insect cells was measured as follows. The membrane vesicles ([…]) were incubated in ATPase assay buffer (50 mM MES [pH 6.8], 50 mM KCl, 5 mM sodium azide, 2 mM EGTA, 2 mM dithiothreitol, 1 mM ouabain, and 10 mM MgCl2) with or without 0.3 mM orthovanadate (freshly prepared) at 37° C. for 5 min, then incubated with different concentrations of drug at 37° C. for 3 min. The ATPase reaction was started by the addition of 5 mM ATP, and the total volume was 0.1 ml. After incubation at 37° C. for 20 min, the reactions were stopped by the addition of 0.1 ml of 5% SDS solution and vortexed and kept at room temperature. The liberated Pi was measured as described in Ambudkar et al., supra.

T1 sequence (P08183 whole entry): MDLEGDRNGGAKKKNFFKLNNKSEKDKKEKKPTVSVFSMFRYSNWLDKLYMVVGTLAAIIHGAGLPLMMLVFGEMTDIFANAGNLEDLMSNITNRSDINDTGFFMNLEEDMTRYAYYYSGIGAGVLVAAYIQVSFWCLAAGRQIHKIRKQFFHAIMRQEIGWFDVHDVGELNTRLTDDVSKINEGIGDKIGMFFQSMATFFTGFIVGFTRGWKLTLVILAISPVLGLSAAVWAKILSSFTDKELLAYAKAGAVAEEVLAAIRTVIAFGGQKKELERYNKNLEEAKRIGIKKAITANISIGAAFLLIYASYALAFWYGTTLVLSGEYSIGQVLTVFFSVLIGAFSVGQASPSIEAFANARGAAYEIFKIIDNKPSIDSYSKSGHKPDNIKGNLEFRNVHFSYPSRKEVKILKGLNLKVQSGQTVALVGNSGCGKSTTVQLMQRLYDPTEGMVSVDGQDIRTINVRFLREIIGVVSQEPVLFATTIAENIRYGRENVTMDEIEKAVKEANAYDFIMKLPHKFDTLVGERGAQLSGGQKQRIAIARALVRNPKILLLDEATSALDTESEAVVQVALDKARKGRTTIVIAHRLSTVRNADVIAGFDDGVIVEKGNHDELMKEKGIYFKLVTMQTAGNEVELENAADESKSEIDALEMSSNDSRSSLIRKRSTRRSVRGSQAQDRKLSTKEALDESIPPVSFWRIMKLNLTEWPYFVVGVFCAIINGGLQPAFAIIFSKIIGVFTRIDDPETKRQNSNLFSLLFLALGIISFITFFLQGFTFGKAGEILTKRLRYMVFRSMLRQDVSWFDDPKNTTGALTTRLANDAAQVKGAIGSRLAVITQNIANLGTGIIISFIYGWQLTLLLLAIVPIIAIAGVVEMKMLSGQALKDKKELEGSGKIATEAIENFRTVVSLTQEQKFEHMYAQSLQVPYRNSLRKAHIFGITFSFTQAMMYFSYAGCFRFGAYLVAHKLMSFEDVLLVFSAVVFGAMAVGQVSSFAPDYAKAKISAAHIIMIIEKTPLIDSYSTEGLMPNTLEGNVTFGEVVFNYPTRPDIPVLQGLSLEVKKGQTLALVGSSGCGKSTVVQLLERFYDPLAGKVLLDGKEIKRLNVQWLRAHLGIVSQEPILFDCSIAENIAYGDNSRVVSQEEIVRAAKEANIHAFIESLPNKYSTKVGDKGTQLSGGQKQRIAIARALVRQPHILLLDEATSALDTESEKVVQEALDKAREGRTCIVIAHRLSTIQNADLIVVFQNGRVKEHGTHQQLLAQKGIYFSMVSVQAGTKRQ

IC50 (ABCB1 [3]) [nM] | EC50 (ABCB1 [4]) [nM] | inhibition at 5 min, 10 µM (ABCB1 [3]; pH 6.8, probe [125I]-IAAP (7 nM), 10 μM, read-out: inhibition of [^125I]-IAAP photolabeling) [%] | Structure (SMILES) | MRP7 protein localization in plasma membranes [1] | protein level of ABCB1 (Western blot) [2] | expression of ABCB1 in the membrane (immunofluorescence) [2] | fold reversal, SN-38 (ABCG2-482-R2 (ABCG2))
> 50000 | > 25000 |  | CN1CC(=O)N2[C@H](c3ccc4c(c3)OCO4)c3[nH]c4ccccc4c3C[C@@H]2C1=O [Tadalafil, tadalafil] | no alteration of MRP7 protein localization | not significantly altered | neither vardenafil nor tadalafil altered the expression of ABCB1 in the membrane | (1.04)
690 | 2690 ± 720 | 90 | CCCc1nc(C)c2c(=O)[nH]c(-c3cc(S(=O)(=O)N4CCN(CC)CC4)ccc3OCC)nn12 [Vardenafil, vardenafil] | no alteration of MRP7 protein localization | not significantly altered | neither vardenafil nor tadalafil altered the expression of ABCB1 in the membrane | (0.97)
